This is an account of results in patent publication US7649002B2, “(3,5-dimethylpiperidin-1yl)(4-phenylpyrrolidin-3-yl)methanone derivatives as MCR4 agonists” (Pfizer Inc, priority 2004, dated 2010).

pEC50: −log10 of the molar value. Where a name gives a salt, the structure may show the parent alone.

T1 sequence (P32245 whole entry): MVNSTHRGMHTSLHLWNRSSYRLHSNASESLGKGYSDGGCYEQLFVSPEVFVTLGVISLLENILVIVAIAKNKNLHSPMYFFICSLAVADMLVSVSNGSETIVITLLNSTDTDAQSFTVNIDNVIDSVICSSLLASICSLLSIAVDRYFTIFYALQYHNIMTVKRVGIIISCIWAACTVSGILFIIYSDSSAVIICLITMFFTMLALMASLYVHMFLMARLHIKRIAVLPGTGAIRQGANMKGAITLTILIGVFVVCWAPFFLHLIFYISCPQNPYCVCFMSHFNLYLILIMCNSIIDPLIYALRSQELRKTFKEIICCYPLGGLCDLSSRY

The first assay addresses T1, human MCR4 receptor (Homo sapiens, UniProt P32245).
T1 construct: expressed in transfected cells
Description: MCR4 improved functional assay (Protocol E): CHO-K1-MC4R-CRE-β-lactamase reporter. The assay is classed as cell-based. As to conditions: Protocols C or E, read-out: functional potency at the MC4 receptor (EC50). The text has this: (ii) MCR5 Standard Functional Assay Methodology and MCR4 Improved Functional Assay Methodology [Assay Protocol D and E Respectively] […] These cell lines were engineered using protocols akin to those outlined by Zaccolo et al (Zaccolo, M., (2000) Nature, 2(1); 25-29). Compound-induced activation of the MCR5 or MCR4 receptors in these two cell lines stimulated the production, and intracellular accumulation, of the enzyme β-lactamase. The quantity of β-lactamase enzyme produced was directly proportional to the degree to which the test compound activated the MCR5 or MCR4 receptors present on these cells and was quantified using the P-lactamase gene reporter analysis kit that is commercially available from Invitrogen Life Technologies. An in-depth description of this technology and assay protocols are available from the Invitrogen web site (www.invitrogen.com). The protocol listed below provides a summary of that assay methodology. The quantity of β-lactamase enzyme produced by compound-induced activation of the MCR5 or MCR4 receptors expressed in these cell lines was quantified using a LjI Biosystems Analyst™ HT 96.384 plate reader set to excite at a wave length of 405 nm, and measure the energy emitted at wave lengths of 450 nm and 530 nm. Cellular responses were quantified by dividing the measured energy emitted at a wavelength of 450 nm by the measured energy emitted at a wavelength of 530 nm. […] CCF4-AM was dissolved in 100% DMSO to give a final solution concentration of 1 mM. This solution was termed Solution A. Probenecid was dissolved in 200 mM NaOH to give a final solution concentration of 200 mM. This solution was termed Solution D. Composition of the β-lactamase assay dye solution: for 1072 μL of assay dye solution combine: 12 μL of Solution A, 60 μL of Solution B, 925 μL of Solution C and 75 μL of Solution D. […] Cells were grown in T225 vent cap flasks containing 50 ml of growth medium and maintained in a cell incubator at a temperature of 37° C. and in an environment containing 5% CO2. The composition of the growth medium for the CHO-K1-MC5R-CRE-β-lactamase was 90% v/v DMEM supplemented with; Glutamax-1, 25 mM HEPES, 10% v/v foetal calf serum (FCS), 1 mM sodium pyruvate, 0.1 mM non essential amino acids and 800 μg/ml genetic in. For the CHO-K1-MC4R-CRE-β-lactamase this growth media was further supplemented with […] Zeocin. Cells were harvested when they reached 80-90% confluency by first removing the existing growth medium and then washing with PBS that had been pre-warmed to a temperature of 37° C. This PBS was then removed and 5 ml of cell dissociation fluid added to the flask. These cells were incubated for 5 minutes in a cell incubator set at a temperature of 37° C. and in an environment containing 5% CO2 to detach the cells. When cells were detached, pre-warmed growth media was added, the cells re-suspended and mixed gently to achieve a single cell suspension by pipetting. This cell suspension was then used for experimentation, or transferred into a new T225 flask to perpetuate the cell culture. […] For each assay the cell plates were then retuned to a cell incubator maintained at a temperature of 37° C. and in an environment containing 5% CO2 overnight before performing the assay on the second assay day. […] For the MCR4 improved functional assay methodology the solution of cyclohexamide was not added. Subsequently, 10 μL of the test compound solution was transferred to the assay plate. The assay plate was then transferred to a cell incubator, set at 37° C. and in an environment containing 5% CO2, and left for 4 hours for the MCR4 improved assay methodology, or 5 hours for the MCR5 standard assay methodology. After this incubation period the plate was removed from the incubator, 10 μL of the […] assay dye solution was added to each well and then the plate returned to the cell incubator.
Regarding `C[C@@H]1CN(C(=O)[C@@H]2CN(C(C)(C)C)C[C@H]2c2ccc(F)cc2F)C[C@H](C)[C@@]1(O)c1ccc(F)c(F)c1` [Example 8, (3R,4R,5S)-1-{[(3S,4R)-1-tert-Butyl-4-(2,4-difluorophenyl)pyrrolidin-3-yl]carbonyl}-4-(3,4-difluorophenyl)-3,5-dimethylpiperidin-4-ol hydrochloride], the pEC50 is above 8.00.
As for `C[C@@H]1CN(C(=O)[C@@H]2CN(C(C)(C)C)C[C@H]2c2ccc(F)cc2F)C[C@H](C)[C@@]1(O)c1ccc(F)cc1` [Example 9, (3R,4R,5S)-1-{[(3S,4R)-1-tert-butyl-4-(2,4-difluorophenyl)pyrrolidin-3-yl]carbonyl}-4-(4-fluorophenyl)-3,5-dimethylpiperidin-4-ol hydrochloride], the pEC50 is above 8.00.
Consider `CC(C)N1C[C@@H](C(=O)N2C[C@@H](C)[C@](O)(c3ccc(F)cc3)[C@@H](C)C2)[C@H](c2ccc(F)cc2F)C1` [Example 10, (3R,4R,5S)-1-{[(3S,4R)-4-(2,4-difluorophenyl)-1-isopropylpyrrolidin-3-yl]carbonyl}-4-(4-fluorophenyl)-3,5-dimethylpiperidin-4-ol hydrochloride], for which the pEC50 is above 6.82.
Same read-out and setting: the result for `CCN1C[C@@H](C(=O)N2C[C@@H](C)[C@](O)(c3ccc(OC)cc3)[C@@H](C)C2)[C@H](c2ccc(F)cc2F)C1` [Example 14, (3R,4R,5S)-1-{[(3S,4R)-4-(2,4-difluorophenyl)-1-ethylpyrrolidin-3-yl]carbonyl}-4-(4-methoxyphenyl)-3,5-dimethylpiperidin-4-ol hydrochloride] reads above 6.82; that for `C[C@@H]1CN(C(=O)[C@@H]2CNC[C@H]2c2ccc(F)cc2F)C[C@H](C)[C@@]1(O)c1ccc(F)cc1F` [Example 16, (3R,4R,5S)-4-(2,4-difluorophenyl)-1-{[(3S,4R)-4-(2,4-difluorophenyl)pyrrolidin-3-yl]carbonyl}-3,5-dimethylpiperidin-4-ol hydrochloride], above 6.82.
For the compound `C[C@@H]1CN(C(=O)[C@@H]2CN(C(C)(C)C)C[C@H]2c2ccc(F)cc2F)C[C@H](C)[C@@]1(O)c1c(F)cccc1F` [Example 17, (3R,4R,5S)-1-[{(3S,4R)-1-tert-butyl-4-(2,4-difluorophenyl)pyrrolidin-3-yl]carbonyl}-4-(2,6-difluorophenyl)-3,5-dimethylpiperidin-4-ol hydrochloride], the pEC50 is above 7.30.
Still for that read-out and setting: the result for `C[C@@H]1CN(C(=O)[C@@H]2CNC[C@H]2c2ccc(F)cc2F)C[C@H](C)[C@@]1(O)c1cccc(F)c1` [Example 20, (3R,4R,5S)-1-{[(3S,4R)-4-(2,4-difluorophenyl)pyrrolidin-3-yl]carbonyl}-4-(3-fluorophenyl)-3,5-dimethylpiperidin-4-ol hydrochloride] reads above 6.82.
Turning to `C[C@@H]1CN(C(=O)[C@@H]2CN(c3cnccn3)C[C@H]2c2ccc(F)cc2F)C[C@H](C)[C@@]1(O)c1ccccc1` [Example 33, (3R,4R,5S)-1-{[(3S,4R)-4-(2,4-Difluorophenyl)-1-pyrazin-2-ylpyrrolidin-3-yl]carbonyl}-3,5-dimethyl-4-phenylpiperidin-4-ol hydrochloride], the pEC50 was above 6.82.
Take `C[C@@H]1CN(C(=O)[C@@H]2CN(c3cccnc3)C[C@H]2c2ccc(F)cc2F)C[C@H](C)[C@@]1(O)c1ccccc1` [Example 34, (3R,4R,5S)-1-{[(3S,4R)-4-(2,4-Difluorophenyl)-1-pyridin-3-ylpyrrolidin-3-yl]carbonyl}-3,5-dimethyl-4-phenylpiperidin-4-ol hydrochloride]: the pEC50 was above 8.00.
On the same count and under the same terms, under `C[C@@H]1CN(C(=O)[C@@H]2CN(c3cncnc3)C[C@H]2c2ccc(F)cc2F)C[C@H](C)[C@@]1(O)c1ccccc1` [Example 36, (3R,4R,5S)-1-{[(3S,4R)-4-(2,4-Difluorophenyl)-1-pyrimidin-5-ylpyrrolidin-3-yl]carbonyl}-3,5-dimethyl-4-phenylpiperidin-4-ol hydrochloride] stands above 6.82; under `CCC[C@@]1(O)[C@H](C)CN(C(=O)[C@@H]2CN(C(C)(C)C)C[C@H]2c2ccc(F)cc2F)C[C@@H]1C` [Example 40, (3R,4R,5S)-1-{[(3S,4R)-1-tert-Butyl-4-(24-difluorophenyl)pyrrolidin-3-yl]carbonyl}-3,5-dimethyl-4-propylpiperidin-4-ol hydrochloride], above 6.82.
Same read-out and setting: the result for `C[C@@H]1CN(C(=O)[C@@H]2CN(c3ccncn3)C[C@H]2c2ccc(F)cc2F)C[C@H](C)[C@@]1(O)c1ccccc1` [Example 42, (3R,4R,5S)-1-{[(3S,4R)-4-(2,4-difluorophenyl)-1-pyrimidin-4-ylpyrrolidin-3-yl]carbonyl}-3,5-dimethyl-4-phenylpiperidin-4-ol hydrochloride] reads above 8.00; that for `C[C@@H]1CN(C(=O)[C@@H]2CN(c3ccncn3)C[C@H]2c2ccc(F)cc2F)C[C@H](C)[C@@]1(O)c1ccccn1` [Example 44, (3R,4R,5S)-1-{[(3S,4R)-4-(2,4-difluorophenyl)-1-pyrimidin-4-ylpyrrolidin-3-yl]carbonyl}-3,5-dimethyl-4-pyridin-2-ylpiperidin-4-ol hydrochloride], above 7.30; that for `C[C@@H]1CN(C(=O)[C@@H]2CN(c3cccnn3)C[C@H]2c2ccc(F)cc2F)C[C@H](C)[C@@]1(O)c1ccccn1` [Example 47, (3R,4R,5S)-1-{[(3S,4R)-4-(2,4-Difluorophenyl)-1-pyridazin-3-ylpyrrolidin-3-yl]carbonyl}-3,5-dimethyl-4-pyridin-2-ylpiperidin-4-ol hydrochloride], above 8.00.
In the case of `C[C@@H]1CN(C(=O)[C@@H]2CNC[C@H]2c2ccc(Cl)cc2)C[C@H](C)[C@@]1(O)c1ccccc1` [Example 48, (3R,4R,5S)-1-{[(3S,4R)-4-(4-Chlorophenyl)pyrrolidin-3-yl]carbonyl}-3,5-dimethyl-4-phenylpiperidin-4-ol hydrochloride], the pEC50 is above 6.82.
Still for that read-out and setting: under `CC(C)N1C[C@@H](C(=O)N2C[C@@H](C)[C@](O)(c3ccc(Cl)cc3)[C@@H](C)C2)[C@H](c2ccc(F)cc2F)C1` [Example 50, (3R,4R,5S)-4-(4-chlorophenyl)-1-{[(3S,4R)-4-(2,4-difluorophenyl)-1-isopropylpyrrolidin-3-yl]carbonyl}-3,5-dimethylpiperidin-4-ol hydrochloride] stands above 6.82; under `CC(C)N1C[C@@H](C(=O)N2C[C@@H](C)[C@](O)(c3ccc(F)c(F)c3)[C@@H](C)C2)[C@H](c2ccc(F)cc2F)C1` [Example 51, (3R,4R,5S)-4-(3,4-difluorophenyl)-1-{[(3S,4R)-4-(2,4-difluorophenyl)-1-isopropylpyrrolidin-3-yl]carbonyl}-3,5-dimethylpiperidin-4-ol hydrochloride], above 7.30; under `CC(C)N1C[C@@H](C(=O)N2C[C@@H](C)[C@](O)(c3ccc(F)cc3F)[C@@H](C)C2)[C@H](c2ccc(F)cc2F)C1` [Example 52, (3R,4R,5S)-4-(2,4-difluorophenyl)-1-{[(3S,4R)-4-(2,4-difluorophenyl)-1-isopropylpyrrolidin-3-yl]carbonyl}-3,5-dimethylpiperidin-4-ol hydrochloride], above 7.30.

The same assay, now with this note: Table 6, read-out: MCR4 EC50.
For `C[C@@H]1CN(C(=O)[C@@H]2CNC[C@H]2c2ccc(F)cc2F)C[C@H](C)[C@@]1(O)c1ccc(F)cc1F` [Example 16, (3R,4R,5S)-4-(2,4-difluorophenyl)-1-{[(3S,4R)-4-(2,4-difluorophenyl)pyrrolidin-3-yl]carbonyl}-3,5-dimethylpiperidin-4-ol hydrochloride], the pEC50 is 7.27.
Turning to `C[C@@H]1CN(C(=O)[C@@H]2CN(c3cccnc3)C[C@H]2c2ccc(F)cc2F)C[C@H](C)[C@@]1(O)c1ccccc1` [Example 34, (3R,4R,5S)-1-{[(3S,4R)-4-(2,4-Difluorophenyl)-1-pyridin-3-ylpyrrolidin-3-yl]carbonyl}-3,5-dimethyl-4-phenylpiperidin-4-ol hydrochloride], the pEC50 is 8.40.

Still in this assay, the particulars now being: functional potency at the MC4 receptor (EC50), Protocols C or E.
In the case of `C[C@@H]1CN(C(=O)[C@@H]2CN(C(C)(C)C)C[C@H]2c2ccc(F)cc2F)C[C@H](C)[C@@]1(O)c1cccc(F)c1` [Example 19, (3R,4R,5S)-1-{[(3S,4R)-1-tert-butyl-4-(2,4-difluorophenyl)pyrrolidin-3-yl]carbonyl}-4-(3-fluorophenyl)-3,5-dimethylpiperidin-4-ol hydrochloride], the pEC50 is above 8.00.
